Measured values published in PMC7156458, “Synthetic biology based construction of biological activity-related library of fungal decalin-containing diterpenoid pyrones” (Nature Communications, 2020).

Target: Aβ42 (Homo sapiens, UniProt P05067)
Experiment: Th-T (thioflavin-T) assay of Aβ42 aggregation
Assay type: biochemical
Conditions: for Th-T assay plate reading, mean of three wells (Supplementary Fig. 47): source data, Ab alone and No Ab as controls

Aβ42, sequence (P05067 672-713): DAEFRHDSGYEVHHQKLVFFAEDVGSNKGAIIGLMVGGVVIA

C=C1CC[C@H]2[C@]3(C)C[C@@H](C=C(C)C)O[C@H]3CC[C@]2(C)[C@@H]1Cc1c(O)c(C)c(C)oc1=O [Compound 5, subglutinol A]
Th-T fluorescence, mean of three wells (Aβ42 aggregation time course, reading M117): 2.674 | Th-T fluorescence, mean of three wells (Aβ42 aggregation time course, reading M118): 2.686 | Th-T fluorescence, mean of three wells (Aβ42 aggregation time course, reading M119): 2.671 | Th-T fluorescence, mean of three wells (Aβ42 aggregation time course, reading M120): 2.6965 | Th-T fluorescence, mean of three wells (Aβ42 aggregation time course, reading M121): 2.686 | Th-T fluorescence, mean of three wells (Aβ42 aggregation time course, reading M122): 2.656 | Th-T fluorescence, mean of three wells (Aβ42 aggregation time course, reading M123): 2.683 | Th-T fluorescence, mean of three wells (Aβ42 aggregation time course, reading M124): 2.652 | Th-T fluorescence, mean of three wells (Aβ42 aggregation time course, reading M125): 2.669 | Th-T fluorescence, mean of three wells (Aβ42 aggregation time course, reading M126): 2.668 | Th-T fluorescence, mean of three wells (Aβ42 aggregation time course, reading M127): 2.67 | Th-T fluorescence, mean of three wells (Aβ42 aggregation time course, reading M128): 2.643 | Th-T fluorescence, mean of three wells (Aβ42 aggregation time course, reading M129): 2.642 | Th-T fluorescence, mean of three wells (Aβ42 aggregation time course, reading M130): 2.649 | Th-T fluorescence, mean of three wells (Aβ42 aggregation time course, reading M131): 2.67 | Th-T fluorescence, mean of three wells (Aβ42 aggregation time course, reading M132): 2.65 | Th-T fluorescence, mean of three wells (Aβ42 aggregation time course, reading M133): 2.648 | Th-T fluorescence, mean of three wells (Aβ42 aggregation time course, reading M134): 2.64 | Th-T fluorescence, mean of three wells (Aβ42 aggregation time course, reading M135): 2.652 | Th-T fluorescence, mean of three wells (Aβ42 aggregation time course, reading M136): 2.674 | Th-T fluorescence, mean of three wells (Supplementary Fig. 47, reading M137): 2.698 | Th-T fluorescence, mean of three wells (Supplementary Fig. 47, reading M138): 2.649 | Th-T fluorescence, mean of three wells (Supplementary Fig. 47, reading M139): 2.636 | Th-T fluorescence, mean of three wells (Supplementary Fig. 47, reading M140): 2.665 | Th-T fluorescence, mean of three wells (Supplementary Fig. 47, reading M141): 2.631 | Th-T fluorescence, mean of three wells (Supplementary Fig. 47, reading M142): 2.63 | Th-T fluorescence, mean of three wells (Supplementary Fig. 47, reading M143): 2.626 | Th-T fluorescence, mean of three wells (Supplementary Fig. 47, reading M144): 2.617 | Th-T fluorescence, mean of three wells (Supplementary Fig. 47, reading M145): 2.644 | Th-T fluorescence, mean of three wells (Supplementary Fig. 47 source data, measurement M37 of time course): 2.596 | Th-T fluorescence, mean of three wells (Supplementary Fig. 47 source data, measurement M38 of time course): 2.604 | Th-T fluorescence, mean of three wells (Supplementary Fig. 47 source data, measurement M39 of time course): 2.6132 | Th-T fluorescence, mean of three wells (Supplementary Fig. 47 source data, measurement M40 of time course): 2.619 | Th-T fluorescence, mean of three wells (Supplementary Fig. 47 source data, measurement M41 of time course): 2.62 | Th-T fluorescence, mean of three wells (Supplementary Fig. 47 source data, measurement M42 of time course): 2.62 | Th-T fluorescence, mean of three wells (Supplementary Fig. 47 source data, measurement M43 of time course): 2.6737 | Th-T fluorescence, mean of three wells (Supplementary Fig. 47 source data, measurement M44 of time course): 2.6589 | Th-T fluorescence, mean of three wells (Supplementary Fig. 47 source data, measurement M45 of time course): 2.678 | Th-T fluorescence, mean of three wells (Supplementary Fig. 47 source data, measurement M46 of time course): 2.668 | Th-T fluorescence, mean of three wells (Supplementary Fig. 47 source data, measurement M47 of time course): 2.664 | Th-T fluorescence, mean of three wells (Supplementary Fig. 47 source data, measurement M48 of time course): 2.673 | Th-T fluorescence, mean of three wells (Supplementary Fig. 47 source data, measurement M49 of time course): 2.687 | Th-T fluorescence, mean of three wells (Supplementary Fig. 47 source data, measurement M50 of time course): 2.7097 | Th-T fluorescence, mean of three wells (Supplementary Fig. 47 source data, measurement M51 of time course): 2.667 | Th-T fluorescence, mean of three wells (Supplementary Fig. 47 source data, measurement M52 of time course): 2.696 | Th-T fluorescence, mean of three wells (Supplementary Fig. 47 source data, measurement M53 of time course): 2.692 | Th-T fluorescence, mean of three wells (Supplementary Fig. 47 source data, measurement M54 of time course): 2.717 | Th-T fluorescence, mean of three wells (Supplementary Fig. 47 source data, measurement M55 of time course): 2.693 | Th-T fluorescence, mean of three wells (Supplementary Fig. 47 source data, measurement M56 of time course): 2.698 | Th-T assay plate reading, mean of three wells (Supplementary Fig. 47) (measurement M1): 0.28 | Th-T assay plate reading, mean of three wells (Supplementary Fig. 47) (measurement M2): 0.2885 | Th-T assay plate reading, mean of three wells (Supplementary Fig. 47) (measurement M3): 0.3145 | Th-T assay plate reading, mean of three wells (Supplementary Fig. 47) (measurement M4): 0.3563 | Th-T assay plate reading, mean of three wells (Supplementary Fig. 47) (measurement M5): 0.4309 | Th-T assay plate reading, mean of three wells (Supplementary Fig. 47) (measurement M6): 0.5173 | Th-T assay plate reading, mean of three wells (Supplementary Fig. 47) (measurement M7): 0.5869 | Th-T assay plate reading, mean of three wells (Supplementary Fig. 47) (measurement M8): 0.6432 | Th-T assay plate reading, mean of three wells (Supplementary Fig. 47) (measurement M9): 0.6839 | Th-T assay plate reading, mean of three wells (Supplementary Fig. 47) (measurement M10): 0.7213 | Th-T assay plate reading, mean of three wells (Supplementary Fig. 47) (measurement M11): 0.7671 | Th-T assay plate reading, mean of three wells (Supplementary Fig. 47) (measurement M12): 0.8255 | Th-T assay plate reading, mean of three wells (Supplementary Fig. 47) (measurement M13): 0.9138 | Th-T assay plate reading, mean of three wells (Supplementary Fig. 47) (measurement M14): 1.049 | Th-T assay plate reading, mean of three wells (Supplementary Fig. 47) (measurement M15): 1.273 | Th-T assay plate reading, mean of three wells (Supplementary Fig. 47) (measurement M16): 1.57 | Th-T fluorescence, mean of three wells (reading M17, Supplementary Fig. 47 source data): 1.838 | Th-T fluorescence, mean of three wells (reading M18, Supplementary Fig. 47 source data): 2.054 | Th-T fluorescence, mean of three wells (reading M19, Supplementary Fig. 47 source data): 2.206 | Th-T fluorescence, mean of three wells (reading M20, Supplementary Fig. 47 source data): 2.312 | Th-T fluorescence, mean of three wells (reading M21, Supplementary Fig. 47 source data): 2.3414 | Th-T fluorescence, mean of three wells (reading M22, Supplementary Fig. 47 source data): 2.381 | Th-T fluorescence, mean of three wells (reading M23, Supplementary Fig. 47 source data): 2.384 | Th-T fluorescence, mean of three wells (reading M24, Supplementary Fig. 47 source data): 2.421 | Th-T fluorescence, mean of three wells (reading M25, Supplementary Fig. 47 source data): 2.421 | Th-T fluorescence, mean of three wells (reading M26, Supplementary Fig. 47 source data): 2.4278 | Th-T fluorescence, mean of three wells (reading M27, Supplementary Fig. 47 source data): 2.452 | Th-T fluorescence, mean of three wells (reading M28, Supplementary Fig. 47 source data): 2.461 | Th-T fluorescence, mean of three wells (reading M29, Supplementary Fig. 47 source data): 2.478 | Th-T fluorescence, mean of three wells (reading M30, Supplementary Fig. 47 source data): 2.514 | Th-T fluorescence, mean of three wells (reading M31, Supplementary Fig. 47 source data): 2.5151 | Th-T fluorescence, mean of three wells (reading M32, Supplementary Fig. 47 source data): 2.555 | Th-T fluorescence, mean of three wells (reading M33, Supplementary Fig. 47 source data): 2.5475 | Th-T fluorescence, mean of three wells (reading M34, Supplementary Fig. 47 source data): 2.566 | Th-T fluorescence, mean of three wells (reading M35, Supplementary Fig. 47 source data): 2.566 | Th-T fluorescence, mean of three wells (reading M36, Supplementary Fig. 47 source data): 2.598 | Th-T fluorescence, mean of three wells (time course, reading M57): 2.692 | Th-T fluorescence, mean of three wells (time course, reading M58): 2.694 | Th-T fluorescence, mean of three wells (time course, reading M59): 2.7314 | Th-T fluorescence, mean of three wells (time course, reading M60): 2.723 | Th-T fluorescence, mean of three wells (time course, reading M61): 2.703 | Th-T fluorescence, mean of three wells (time course, reading M62): 2.708 | Th-T fluorescence, mean of three wells (time course, reading M63): 2.7 | Th-T fluorescence, mean of three wells (time course, reading M64): 2.715 | Th-T fluorescence, mean of three wells (time course, reading M65): 2.696 | Th-T fluorescence, mean of three wells (time course, reading M66): 2.7072 | Th-T fluorescence, mean of three wells (time course, reading M67): 2.703 | Th-T fluorescence, mean of three wells (time-course reading M97, Supplementary Fig. 47 source data): 2.693 | Th-T fluorescence, mean of three wells (time-course reading M98, Supplementary Fig. 47 source data): 2.706 | Th-T fluorescence, mean of three wells (time-course reading M99, Supplementary Fig. 47 source data): 2.707 | Th-T fluorescence, mean of three wells (time-course reading M100, Supplementary Fig. 47 source data): 2.682 | Th-T fluorescence, mean of three wells (time-course reading M101, Supplementary Fig. 47 source data): 2.67 | Th-T fluorescence, mean of three wells (time-course reading M102, Supplementary Fig. 47 source data): 2.671 | Th-T fluorescence, mean of three wells (time-course reading M103, Supplementary Fig. 47 source data): 2.705 | Th-T fluorescence, mean of three wells (time-course reading M104, Supplementary Fig. 47 source data): 2.674 | Th-T fluorescence, mean of three wells (time-course reading M105, Supplementary Fig. 47 source data): 2.704 | Th-T fluorescence, mean of three wells (time-course reading M106, Supplementary Fig. 47 source data): 2.676 | Th-T fluorescence, mean of three wells (time-course reading M107, Supplementary Fig. 47 source data): 2.6621 | Th-T fluorescence, mean of three wells (time-course reading M108, Supplementary Fig. 47 source data): 2.675 | Th-T fluorescence, mean of three wells (time-course reading M109, Supplementary Fig. 47 source data): 2.6837 | Th-T fluorescence, mean of three wells (time-course reading M110, Supplementary Fig. 47 source data): 2.682 | Th-T fluorescence, mean of three wells (time-course reading M111, Supplementary Fig. 47 source data): 2.679 | Th-T fluorescence, mean of three wells (time-course reading M112, Supplementary Fig. 47 source data): 2.691 | Th-T fluorescence, mean of three wells (time-course reading M113, Supplementary Fig. 47 source data): 2.675 | Th-T fluorescence, mean of three wells (time-course reading M114, Supplementary Fig. 47 source data): 2.674 | Th-T fluorescence, mean of three wells (time-course reading M115, Supplementary Fig. 47 source data): 2.688 | Th-T fluorescence, mean of three wells (time-course reading M116, Supplementary Fig. 47 source data): 2.67
